Data published in patent publication US20230183751A1, “HDR ENHANCERS” (OXFORD GENETICS LIMITED, priority 2020, published 2023).

Experiments:
HEK reporter cell line = assay: cell-viability assay with alamar blue reagent; type: cell-based, human; conditions: 72 hours
Procedure: To investigate the effect of this library on HDR efficiency and to identify novel molecules which would increase the HDR mediated gene editing efficiency, first we carried out a cell-viability assay using the HEK reporter cell line and alamar blue reagent. The experiment was performed to rule out any toxicity associated with the small molecule library. Briefly, 3 different concentration of inhibitors (0.1 μM, 1 μM and 10 μM) were added in the cells in a 96 well plate format and plates were incubated for 72 hours. After 72 hours, the media were replaced with alamar blue containing media and the plates were further incubated for 3 hours and then read on a Fluorstar omega plate reader. The table gives the results obtained with the subsequently-selected inhibitors, together with a range of other potential inhibitors.

[1] = test system: HDR in HEK293 reporter cell line (truncated EGFP); assay: HDR assay with paired nickases Cas9n D10A RNP and ssOligo donor, EGFP-positive cells by FACS; type: cell-based, human; conditions: FIG. 3; for dose-dependency of HDR efficiency: three concentrations (low, medium, high); for concentration with highest HDR efficiency: three concentrations tested
Procedure: More specifically, an HDR assay using a HEK reporter cell line containing truncated EGFP may be used. These cells may be transfected with a transfection complex containing the CRISPR endonuclease and a donor sequence. Cas9 RNPs may be prepared by following the manufacturers' guidelines. The transfection complex may be prepared by adding Cas9 RNP or Cas9 nickase RNP, along with ssOligo donor and lipofectamine 2000 in Optimem. Reagents should be mixed well and incubated for 20 mins. After 20 mins, 50 μlof transfection complex (at an optimal concentration—see the Examples herein) may be transferred in a 96 well plate and 50 μlHEK293 reporter cell line suspension (9×10^5 cells/ml) added followed by 50 μl of cell culture medium containing appropriate concentration(s) of inhibitor(s). Cells may be incubated at 37° C. in a CO2 incubator for 24 hours and then inhibitor-containing media should be replaced with fresh media without inhibitor. Cells are then further incubated for 48 hours. After 48 hours, cells may be trypsinized and resuspended in PBS containing 10% FBS. Samples may be run on FACS and the percentage of EGFP in the population measured. Presence of EGFP directly correlates with HDR efficiency. […]
To understand if inhibitors have any influence on HDR mediated by paired nickases, we carried out an HDR assay in the presence of the small molecule inhibitor library. Briefly, in vitro reconstituted Cas9n D10A RNP with gRNA-X1 and gRNA-X2 was transfected into the reporter cell line along with ssOligo donor in the presence of different small molecule inhibitors. Inhibitor-containing media was replaced with fresh media after 24 hours and the cells were then further incubated for 48 hours. After 48 hours, the cells were trypsinized and resuspended in 10% FBS containing PBS and analysed by FACS. EGFP-positive cells were monitored; these represented successful HDR events. […]

## Cl.O=C([C@@H](Cc1cccc(C(F)(F)F)c1)NS(=O)(=O)c1cc(F)c2c(c1)CCNC2)N1CCCC1 [(R)-PFI2 hydrochloride]
HEK reporter cell line; 0.1 μM inhibitor
  % survival: 102.58 ± 0.88%
HEK reporter cell line; 1 μM inhibitor
  % survival: 101.51 ± 4.1%
HEK reporter cell line; 10 μM inhibitor
  % survival: 96.42 ± 0.64%
[1]
  dose-dependency of HDR efficiency: dose-dependent increases in HDR efficiency
  concentration with highest HDR efficiency: 20 µM

## Clc1cc2c(NC3CCCC3)nnc(-c3ccncc3)c2cc1Cl [A196]
HEK reporter cell line; 0.1 μM inhibitor
  % survival: 105.84 ± 0.05%
HEK reporter cell line; 1 μM inhibitor
  % survival: 107.75 ± 6.83%
HEK reporter cell line; 10 μM inhibitor
  % survival: 107.43 ± 0.21%
[1]
  dose-dependency of HDR efficiency: dose-dependent increases in HDR efficiency
  concentration with highest HDR efficiency: 20 µM

## CN(C)[C@H]1CN(C2CCc3cccc(F)c32)C[C@@H]1c1ccc(N2CCN(S(C)(=O)=O)CC2)cc1 (some centres unmarked) [A395]
HEK reporter cell line; 0.1 μM inhibitor
  % survival: 100.35 ± 1.4%
HEK reporter cell line; 1 μM inhibitor
  % survival: 103.27 ± 0.32%
HEK reporter cell line; 10 μM inhibitor
  % survival: 87.94 ± 9.49%
[1]
  dose-dependency of HDR efficiency: did not show any significant dose-dependency

## O=C(Nc1c[nH]nc1-c1nc2cc(CN3CCOCC3)ccc2[nH]1)NC1CC1 [AT9283]
[1]
  dose-dependency of HDR efficiency: moderate decreases in HDR efficiency upon increasing the inhibitor concentration
  concentration with highest HDR efficiency: 0.05 µM

## CCN(C(=O)CO)[C@H]1CN(/C(=N\C#N)Nc2cccc(OC(F)F)c2)N=C1c1ccc(Cl)c(Cl)c1 [BAY598]
HEK reporter cell line; 0.1 μM inhibitor
  % survival: 102.45 ± 0.9%
HEK reporter cell line; 1 μM inhibitor
  % survival: 102.92 ± 0.42%
HEK reporter cell line; 10 μM inhibitor
  % survival: 101.44 ± 8.52%
[1]
  dose-dependency of HDR efficiency: dose-dependent increases in HDR efficiency
  concentration with highest HDR efficiency: 20 µM

## COc1ccc(CCC(=O)Nc2nc3ccc(Cl)cc3s2)cc1OC [KY02111]
HEK reporter cell line; 0.1 μM inhibitor
  % survival: 100.52 ± 2.05%
HEK reporter cell line; 1 μM inhibitor
  % survival: 100.86 ± 1.83%
HEK reporter cell line; 10 μM inhibitor
  % survival: 95.18 ± 2.27%
[1]
  dose-dependency of HDR efficiency: did not show any significant dose-dependency

## O=c1cc(N2CCOCC2)oc2c1ccc1ccccc12 [NU7026]
HEK reporter cell line; 0.1 μM inhibitor
  % survival: 100.08 ± 4.01%
HEK reporter cell line; 1 μM inhibitor
  % survival: 100.14 ± 4.13%
HEK reporter cell line; 10 μM inhibitor
  % survival: 83.17 ± 1.44%

## O=c1cc(N2CCOCC2)oc2c(-c3cccc4c3sc3ccccc34)cccc12 [NU7441]
HEK reporter cell line; 0.1 μM inhibitor
  % survival: 103.58 ± 4.44%
HEK reporter cell line; 1 μM inhibitor
  % survival: 88.88 ± 3.55%
HEK reporter cell line; 10 μM inhibitor
  % survival: 22.95 ± 0.98%
[1]
  dose-dependency of HDR efficiency: dose-dependent increases in HDR efficiency
  concentration with highest HDR efficiency: 2 µM

## CCCCc1nc2cc(/C=C/C(=O)NO)ccc2n1CCN(CC)CC [SB939]
HEK reporter cell line; 0.1 μM inhibitor
  % survival: 80.99 ± 1.01%
HEK reporter cell line; 1 μM inhibitor
  % survival: 15.56 ± 2.26%
HEK reporter cell line; 10 μM inhibitor
  % survival: 2.25 ± 0.31%
[1]
  dose-dependency of HDR efficiency: moderate decreases in HDR efficiency upon increasing the inhibitor concentration
  concentration with highest HDR efficiency: 0.05 µM
